Legend:
Type in all cases: in vivo
[1] = test system: velvetleaf (Abutilon theophrasti); test: Test B pre-/postemergence; parameters: key: 0 is no effect; 10 is complete control
Summary of the method: (§1)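 Seeds were planted and sprayed preemergence, while plants at 2 to 18 cm (1- to 4-leaf stage) were sprayed postemergence at the same time, with test chemical in a non-phytotoxic solvent mixture containing surfactant. After twelve to sixteen days in a greenhouse, injury was rated visually against untreated controls on a 0–10 scale.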

[2] = test system: sugar beet (Beta vulgaris); test: Test B pre-/postemergence; parameters: key: 0 is no effect; 10 is complete control
Summary of the method: as §1

[3] = test system: giant foxtail (Setaria faberii); test: Test B pre-/postemergence; parameters: key: 0 is no effect; 10 is complete control
Summary of the method: as §1

[4] = test system: corn (Zea mays); test: Test B pre-/postemergence; parameters: key: 0 is no effect; 10 is complete control; settings: for Corn plant response rating: Preemergence
Summary of the method: as §1

[5] = test system: bedstraw (Galium aparine); test: Test B pre-/postemergence; parameters: key: 0 is no effect; 10 is complete control; settings: for Bedstraw plant response rating: Preemergence
Summary of the method: as §1

[6] = test system: cocklebur (Xanthium strumarium); test: Test B pre-/postemergence; parameters: key: 0 is no effect; 10 is complete control; settings: for Cocklebur plant response rating: Preemergence
Summary of the method: as §1

[7] = test system: pigweed (Amaranthus retroflexus); test: Test B pre-/postemergence; parameters: key: 0 is no effect; 10 is complete control
Summary of the method: as §1

[8] = test system: broadleaf signalgrass (Brachiaria decumbens); test: Test B pre-/postemergence; parameters: key: 0 is no effect; 10 is complete control; settings: for B. signalgrass plant response rating: Preemergence
Summary of the method: as §1

[9] = test system: purple nutsedge (Cyperus rotundus); test: Test B pre-/postemergence; parameters: key: 0 is no effect; 10 is complete control
Summary of the method: as §1

[10] = test system: crabgrass (Digitaria sanguinalis); test: Test B pre-/postemergence; parameters: key: 0 is no effect; 10 is complete control; settings: for Crabgrass plant response rating: Preemergence
Summary of the method: as §1

[11] = test system: momingglory (Ipomoea hederacea); test: Test B pre-/postemergence; parameters: key: 0 is no effect; 10 is complete control
Summary of the method: as §1

[12] = test system: wheat (Triticum aestivum); test: Test B pre-/postemergence; parameters: key: 0 is no effect; 10 is complete control
Summary of the method: as §1

[13] = test system: blackgrass (Alopecurus myosuroides); test: Test B pre-/postemergence; parameters: key: 0 is no effect; 10 is complete control; settings: for Blackgrass plant response rating: Preemergence
Summary of the method: as §1

[14] = test system: soybean (Glycine max); test: Test B pre-/postemergence; parameters: key: 0 is no effect; 10 is complete control
Summary of the method: as §1

[15] = test system: rape (Brassica napus); test: Test B pre-/postemergence; parameters: key: 0 is no effect; 10 is complete control
Summary of the method: as §1

[16] = test system: wild oat (Avena fatua); test: Test B pre-/postemergence; parameters: key: 0 is no effect; 10 is complete control
Summary of the method: as §1

[17] = test system: rice (Oryza sativa); test: Test B flood test
Summary of the method: (§2)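 Plants were grown to the 2-leaf stage before treatment with test chemical, then held in a greenhouse for twelve to sixteen days. Injury was visually rated against untreated controls on a 0–10 scale, where 0 is no effect and 10 is complete control.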

[18] = test system: duck salad (Heteranthera limosa); test: Test B flood test
Summary of the method: as §2

[19] = test system: bamyardgrass (Echinochloa crus-galli); test: Test B flood test
Summary of the method: as §2

[20] = test system: smallflower flatsedge (Cyperus difformis); test: Test B flood test
Summary of the method: as §2

[21] = Rate 250 g/ha, Postemergence (so in the source)
[22] = Rate 62 g/ha, Postemergence (flood test)
[23] = Rate 125 g/ha, Postemergence section (flood test species)
[24] = Rate 250 g/ha, Postemergence (flood test species)
[25] = Rate 125 g/ha, Postemergence, flood test

## Cc1cnc(-c2ccc(C#N)cc2)nc1Cc1cccc(C(F)(F)F)c1 [Compound 30]
[1]; Rate 62 g/ha, Postemergence
  Plant response rating, Velvetleaf: 5
[1]; Rate 62 g/ha, Preemergence
  Velvetleaf plant response rating: 1
[1]; Rate 125 g/ha, Postemergence
  Velvetleaf plant response rating: 6
[1]; Rate 125 g/ha, Preemergence
  Plant response rating, Velvetleaf: 2
[1]; Rate 250 g/ha, Postemergence
  Plant response rating, Velvetleaf: 8
[1]; [21]
  Plant response rating, Velvetleaf: 6
[2]; Rate 62 g/ha, Postemergence
  Plant response rating, Sugarbeets: 10
[2]; Rate 62 g/ha, Preemergence
  Sugarbeets plant response rating: 6
[2]; Rate 125 g/ha, Postemergence
  Sugarbeets plant response rating: 10
[2]; Rate 125 g/ha, Preemergence
  Plant response rating, Sugarbeets: 9
[2]; Rate 250 g/ha, Postemergence
  Plant response rating, Sugarbeets: 10
[2]; [21]
  Plant response rating, Sugarbeets: 10
[3]; Rate 62 g/ha, Postemergence
  Plant response rating, Giant foxtail: 1
[3]; Rate 62 g/ha, Preemergence
  Giant foxtail plant response rating: 1
[3]; Rate 125 g/ha, Postemergence
  Giant foxtail plant response rating: 1
[3]; Rate 125 g/ha, Preemergence
  Giant foxtail plant response rating: 5
[3]; Rate 250 g/ha, Postemergence
  Plant response rating, Giant foxtail: 2
[3]; [21]
  Plant response rating, Giant foxtail: 9
[4]; Rate 62 g/ha, Postemergence
  Plant response rating, Corn: 1
[4]; Rate 62 g/ha
  Corn plant response rating: 0
[4]; Rate 125 g/ha, Postemergence
  Plant response rating, Corn: 2
[4]; Rate 125 g/ha
  Corn plant response rating: 0
[4]; Rate 250 g/ha, Postemergence
  Plant response rating, Corn: 2
[4]; [21]
  Plant response rating, Corn: 0
[5]; Rate 62 g/ha, Postemergence
  Plant response rating, Bedstraw: 1
[5]; Rate 62 g/ha
  Bedstraw plant response rating: 3
[5]; Rate 125 g/ha, Postemergence
  Plant response rating, Bedstraw: 6
[5]; Rate 125 g/ha
  Bedstraw plant response rating: 10
[5]; Rate 250 g/ha, Postemergence
  Plant response rating, Bedstraw: 6
[5]; [21]
  Plant response rating, Bedstraw: 10
[6]; Rate 62 g/ha, Postemergence
  Plant response rating, Cocklebur: 5
[6]; Rate 62 g/ha
  Cocklebur plant response rating: 0
[6]; Rate 125 g/ha, Postemergence
  Plant response rating, Cocklebur: 8
[6]; Rate 125 g/ha
  Cocklebur plant response rating: 0
[6]; Rate 250 g/ha, Postemergence
  Plant response rating, Cocklebur: 8
[6]; [21]
  Plant response rating, Cocklebur: 0
[7]; Rate 62 g/ha, Postemergence
  Plant response rating, Redroot pigweed: 7
[7]; Rate 62 g/ha, Preemergence
  Redroot pigweed plant response rating: 2
[7]; Rate 125 g/ha, Postemergence
  Redroot pigweed plant response rating: 9
[7]; Rate 125 g/ha, Preemergence
  Redroot pigweed plant response rating: 7
[7]; Rate 250 g/ha, Postemergence
  Plant response rating, Redroot pigweed: 9
[7]; [21]
  Plant response rating, Redroot pigweed: 10
[8]; Rate 62 g/ha, Postemergence
  Plant response rating, B. signalgrass: 1
[8]; Rate 62 g/ha
  B. signalgrass plant response rating: 1
[8]; Rate 125 g/ha, Postemergence
  Plant response rating, B. signalgrass: 2
[8]; Rate 125 g/ha
  B. signalgrass plant response rating: 4
[8]; Rate 250 g/ha, Postemergence
  Plant response rating, B. signalgrass: 2
[8]; Rate 250 g/ha, Postemergence as printed in head r139 (second section for compounds 26-50)
  Plant response rating, B. signalgrass: 6
[9]; Rate 62 g/ha, Postemergence
  Plant response rating, Nutsedge: 0
[9]; Rate 62 g/ha, Preemergence
  Nutsedge plant response rating: 0
[9]; Rate 125 g/ha, Postemergence
  Nutsedge plant response rating: 0
[9]; Rate 125 g/ha, Preemergence
  Nutsedge plant response rating: 0
[9]; Rate 250 g/ha, Postemergence
  Plant response rating, Nutsedge: 2
[9]; [21]
  Plant response rating, Nutsedge: 0
[10]; Rate 62 g/ha, Postemergence
  Plant response rating, Crabgrass: 1
[10]; Rate 62 g/ha
  Crabgrass plant response rating: 1
[10]; Rate 125 g/ha, Postemergence
  Plant response rating, Crabgrass: 1
[10]; Rate 125 g/ha
  Crabgrass plant response rating: 3
[10]; Rate 250 g/ha, Postemergence
  Plant response rating, Crabgrass: 7
[10]; [21]
  Plant response rating, Crabgrass: 8
[11]; Rate 62 g/ha, Postemergence
  Plant response rating, Morningglory: 2
[11]; Rate 62 g/ha, Preemergence
  Morningglory plant response rating: 1
[11]; Rate 125 g/ha, Postemergence
  Morningglory plant response rating: 5
[11]; Rate 125 g/ha, Preemergence
  Morningglory plant response rating: 1
[11]; Rate 250 g/ha, Postemergence
  Plant response rating, Morningglory: 9
[11]; [21]
  Plant response rating, Morningglory: 3
[12]; Rate 62 g/ha, Postemergence
  Wheat plant response rating: 1
[12]; Rate 62 g/ha, Preemergence
  Wheat plant response rating: 0
[12]; Rate 125 g/ha, Postemergence
  Wheat plant response rating: 2
[12]; Rate 125 g/ha, Preemergence
  Plant response rating, Wheat: 0
[12]; Rate 250 g/ha, Postemergence
  Plant response rating, Wheat: 2
[12]; [21]
  Plant response rating, Wheat: 0
[13]; Rate 62 g/ha, Postemergence
  Plant response rating, Blackgrass: 0
[13]; Rate 62 g/ha
  Blackgrass plant response rating: 0
[13]; Rate 125 g/ha, Postemergence
  Plant response rating, Blackgrass: 1
[13]; Rate 125 g/ha
  Blackgrass plant response rating: 2
[13]; Rate 250 g/ha, Postemergence
  Plant response rating, Blackgrass: 1
[13]; [21]
  Plant response rating, Blackgrass: 2
[14]; Rate 62 g/ha, Postemergence
  Plant response rating, Soybean: 3
[14]; Rate 62 g/ha, Preemergence
  Soybean plant response rating: 0
[14]; Rate 125 g/ha, Postemergence
  Soybean plant response rating: 3
[14]; Rate 125 g/ha, Preemergence
  Plant response rating, Soybean: 0
[14]; Rate 250 g/ha, Postemergence
  Plant response rating, Soybean: 6
[14]; [21]
  Plant response rating, Soybean: 0
[15]; Rate 62 g/ha, Postemergence
  Plant response rating, Rape: 4
[15]; Rate 62 g/ha, Preemergence
  Rape plant response rating: 0
[15]; Rate 125 g/ha, Postemergence
  Rape plant response rating: 8
[15]; Rate 125 g/ha, Preemergence
  Rape plant response rating: 2
[15]; Rate 250 g/ha, Postemergence
  Plant response rating, Rape: 10
[15]; [21]
  Plant response rating, Rape: 3
[16]; Rate 62 g/ha, Postemergence
  Wild oats plant response rating: 1
[16]; Rate 62 g/ha, Preemergence
  Wild oats plant response rating: 1
[16]; Rate 125 g/ha, Postemergence
  Wild oats plant response rating: 2
[16]; Rate 125 g/ha, Preemergence
  Plant response rating, Wild oats: 1
[16]; Rate 250 g/ha, Postemergence
  Plant response rating, Wild oats: 2
[16]; [21]
  Plant response rating, Wild oats: 2
[17]; [22]
  Plant response rating, Rice: 1
[17]; [23]
  Rice plant response rating: 1
[17]; [24]
  Plant response rating, Rice: 2
[18]; [22]
  Plant response rating, Ducksalad: 3
[18]; [25]
  Plant response rating, Ducksalad: 4
[18]; [24]
  Plant response rating, Ducksalad: 5
[19]; [22]
  Plant response rating, Barnyardgrass: 3
[19]; [25]
  Plant response rating, Barnyardgrass: 3
[19]; [24]
  Plant response rating, Barnyardgrass: 4
[20]; [22]
  Plant response rating, S. Flatsedge: 4
[20]; [23]
  S. Flatsedge plant response rating: 6
[20]; [24]
  Plant response rating, S. Flatsedge: 8

Reference: US6525001B1, “Substituted pyrimidine and pyridine herbicides” (Mid-American Commercialization Corporation, priority 1997, dated 2003)
